target: Tyrosine-protein kinase BTK (Homo sapiens, UniProt Q06187); assay: Caliper-Based Kinase Assay: A Caliper-based kinase assay (Caliper Life Sciences, Hopkinton, Mass.) was used to measure inhibition of Btk kinase activity of a compound of the present disclosure. […] The reaction was then terminated with EDTA, final concentration 20 mM and the phosphorylated reaction product was quantified on a Caliper Desktop Profiler (Caliper LabChip 3000).
Sequence (Q06187 whole entry): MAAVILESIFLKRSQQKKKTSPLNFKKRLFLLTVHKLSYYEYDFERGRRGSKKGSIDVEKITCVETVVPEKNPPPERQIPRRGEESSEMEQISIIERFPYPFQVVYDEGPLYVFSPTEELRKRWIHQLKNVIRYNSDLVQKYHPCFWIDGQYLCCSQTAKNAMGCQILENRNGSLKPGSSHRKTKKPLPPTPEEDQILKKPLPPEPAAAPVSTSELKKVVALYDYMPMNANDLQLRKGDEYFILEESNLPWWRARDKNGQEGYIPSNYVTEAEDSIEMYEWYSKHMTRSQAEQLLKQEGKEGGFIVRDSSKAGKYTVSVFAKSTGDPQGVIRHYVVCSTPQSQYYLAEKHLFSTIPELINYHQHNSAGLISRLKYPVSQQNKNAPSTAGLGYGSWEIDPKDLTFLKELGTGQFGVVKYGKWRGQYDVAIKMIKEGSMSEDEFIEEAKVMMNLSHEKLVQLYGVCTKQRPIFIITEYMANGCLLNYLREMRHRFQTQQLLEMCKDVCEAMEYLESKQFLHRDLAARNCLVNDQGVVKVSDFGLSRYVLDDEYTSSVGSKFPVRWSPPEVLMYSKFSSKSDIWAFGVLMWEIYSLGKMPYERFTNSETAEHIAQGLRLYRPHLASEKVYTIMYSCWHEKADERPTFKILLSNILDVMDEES

Structure (SMILES)	IC50
CC(C)(C)N1CCN(C(C)(C)C=C(C#N)C(=O)N2CCC[C@@H](n3nc(-c4ccc(Oc5ccccc5)cc4F)c4c(N)ncnc43)C2)CC1	0.0006 µM
CC(C)(C=C(C#N)C(=O)N1CCC[C@H]1Cn1nc(-c2ccc(Oc3ccccc3)cc2F)c2c(N)ncnc21)N(C1CC1)C1COC1	0.026 µM
CC(C)(C=C(C#N)C(=O)N1CCC[C@H]1Cn1nc(-c2ccc(Oc3ccccc3)cc2F)c2c(N)ncnc21)NC1COC1	0.0161 µM

— ChEMBL document CHEMBL3639296, “Pyrazolopyrimidine compounds as kinase inhibitors” (2015)
